Results as given in ChEMBL document CHEMBL1201862, “PubChem BioAssay data set” (2004).
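Cells were grown in 96-well plates and exposed to each compound for 48 hours at five concentrations; endpoints were interpolated linearly between bracketing concentrations, or set to the highest concentration if not reached. Here, GI50 denotes the concentration required for 50% inhibition of growth.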 The source made the active and inactive calls. Rule as the data show it: active = GI50 up to about 1.1 µM and inactive = higher.

Key:
Test in all cases: NCI anticancer screen, dose series, 48 h
SNB-75 = system: SNB-75
HCC 2998 = system: HCC 2998
SN12C = system: SN12C
SK-OV-3 = system: SK-OV-3
HT-29 = system: HT-29
UACC-257 = system: UACC-257
U-251 = system: U-251
MDA-N = system: MDA-N
SF-539 = system: SF-539
HOP-92 = system: HOP-92
OVCAR-4 = system: OVCAR-4
TK-10 = system: TK-10
ACHN = system: ACHN
OVCAR-5 = system: OVCAR-5
K562 = system: K562
KM12 = system: KM12
HL-60 = system: HL-60
HCT-15 = system: HCT-15
M19-MEL = system: M19-MEL
DMS-114 = system: DMS-114

| SMILES | GI50 (SNB-75) | GI50 (HCC 2998) | GI50 (SN12C) | GI50 (SK-OV-3) | GI50 (HT-29) | GI50 (UACC-257) | GI50 (U-251) | GI50 (MDA-N) | GI50 (SF-539) | GI50 (HOP-92) | GI50 (OVCAR-4) | GI50 (TK-10) | GI50 (ACHN) | GI50 (OVCAR-5) | GI50 (K562) | GI50 (KM12) | GI50 (HL-60) | GI50 (HCT-15) | GI50 (M19-MEL) | GI50 (DMS-114) |
| --- | --- | --- | --- | --- | --- | --- | --- | --- | --- | --- | --- | --- | --- | --- | --- | --- | --- | --- | --- | --- |
| Brc1ccc2c(c1)[C@H]1CCc3c([nH]c4ccccc34)[C@H]1N2 | 21.3 µM (inactive) | 12.9 µM (inactive) | 13 µM (inactive) | 14.3 µM (inactive) | 14.1 µM (inactive) | 12.8 µM (inactive) | 10.1 µM (inactive) | 14.9 µM (inactive) | 2.36 µM (inactive) | 13.3 µM (inactive) | 13 µM (inactive) | 11.2 µM (inactive) | 12.5 µM (inactive) | 11.7 µM (inactive) | 4.85 µM (inactive) | 5.31 µM (inactive) | – | – | – | – |
| COC(=O)/C=C\n1ncc(=O)[nH]c1=O | > 100 µM (inactive) | > 100 µM (inactive) | > 100 µM (inactive) | – | > 100 µM (inactive) | > 100 µM (inactive) | > 100 µM (inactive) | > 100 µM (inactive) | – | > 100 µM (inactive) | > 100 µM (inactive) | > 100 µM (inactive) | > 100 µM (inactive) | > 100 µM (inactive) | > 100 µM (inactive) | > 10 µM (inactive) | > 100 µM (inactive) | > 100 µM | – | – |
| CC(=O)Nc1ccc(Sc2nnc(NC(C)=O)s2)cc1 | > 100 µM (inactive) | > 100 µM (inactive) | > 100 µM (inactive) | > 100 µM (inactive) | – | > 100 µM (inactive) | > 100 µM (inactive) | > 100 µM (inactive) | > 100 µM (inactive) | – | > 100 µM (inactive) | > 100 µM (inactive) | > 100 µM (inactive) | > 100 µM (inactive) | > 100 µM (inactive) | > 100 µM (inactive) | > 100 µM (inactive) | > 100 µM | – | – |
| CN(C)CCCNC(=O)N/N=C\c1cccc2ccccc12 | > 10 µM (inactive) | > 10 µM (inactive) | > 10 µM (inactive) | > 10 µM (inactive) | > 10 µM (inactive) | – | – | > 10 µM (inactive) | > 10 µM (inactive) | > 10 µM (inactive) | > 10 µM (inactive) | > 10 µM (inactive) | > 10 µM (inactive) | > 10 µM (inactive) | > 10 µM (inactive) | > 10 µM (inactive) | > 10 µM (inactive) | > 10 µM | – | – |
| CN(CCO)/N=N/c1[nH]cnc1C(N)=O | 26.8 µM (inactive) | > 100 µM (inactive) | > 100 µM (inactive) | 30.9 µM (inactive) | > 100 µM (inactive) | 99.8 µM (inactive) | > 100 µM (inactive) | – | > 100 µM (inactive) | 77.8 µM (inactive) | > 100 µM (inactive) | 49.2 µM (inactive) | > 100 µM (inactive) | > 100 µM (inactive) | – | > 100 µM (inactive) | 79.3 µM (inactive) | > 100 µM | > 100 µM (inactive) | > 100 µM (inactive) |
| CN(C)CCNC(=O)c1cccc2c(=O)c3ccccc3oc12 | 32.4 µM (inactive) | 60 µM (inactive) | 24.3 µM (inactive) | 25.1 µM (inactive) | 25.4 µM (inactive) | 26.9 µM (inactive) | 44.4 µM (inactive) | – | 53.3 µM (inactive) | 20.1 µM (inactive) | 34.5 µM (inactive) | – | – | 24.3 µM (inactive) | 40.8 µM (inactive) | 35.4 µM (inactive) | 29.2 µM (inactive) | 37.4 µM | 22.9 µM (inactive) | 28.1 µM (inactive) |
| COc1cc(C2c3cc4c(cc3[C@@H](Nc3ccccc3)C3COC(=O)[C@H]23)OCO4)cc(OC)c1O (stereo partly specified) | 0.875 µM (active) | 1.23 µM (inactive) | 0.485 µM (active) | 0.845 µM (active) | 1.23 µM (inactive) | 0.615 µM (active) | 0.391 µM (active) | – | 0.322 µM (active) | 0.857 µM (active) | 5.6 µM (inactive) | – | – | 1.86 µM (inactive) | 0.931 µM (active) | 1.47 µM (inactive) | 0.14 µM (active) | 0.417 µM | 1.55 µM (inactive) | 0.687 µM (active) |
